# Laboratory results published in patent US20200016159A1, “N3-CYCLICALLY SUBSTITUTED THIENOURACILS AND USE THEREOF” (Bayer Aktiengesellschaft, priority 2016, published 2020).
# Target: T1, human adenosine A2b receptor (Homo sapiens, UniProt P29275)
# T1 sequence (P29275 1-332): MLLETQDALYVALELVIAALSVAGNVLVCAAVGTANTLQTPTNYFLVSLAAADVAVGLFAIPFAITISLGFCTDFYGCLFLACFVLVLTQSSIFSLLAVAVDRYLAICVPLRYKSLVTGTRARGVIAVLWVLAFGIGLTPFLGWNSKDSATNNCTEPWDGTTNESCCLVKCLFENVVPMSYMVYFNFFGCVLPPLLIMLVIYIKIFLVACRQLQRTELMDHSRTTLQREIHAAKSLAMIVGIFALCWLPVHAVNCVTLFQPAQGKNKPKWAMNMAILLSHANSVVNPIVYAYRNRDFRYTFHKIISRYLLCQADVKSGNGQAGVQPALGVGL
# Test: Cellular in vitro reporter gene test for A2b receptor activity (antagonism of NECA)
# Format: cell-based
# Set-up: expressed in transfected cells; host or cells: CHO-K1 (Chinese hamster ovary) with CRE-luciferase reporter
# Conditions: recombinant CHO-K1 cells, CRE-luciferase reporter, co-incubation with EC50 concentration of NECA, 3 hours
# Procedure, shortened: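 Antagonism measured as block of NECA-induced, cAMP/CRE-dependent luciferase expression in recombinant A2b CHO-K1 cells. NECA used at the EC50 set in a pre-experiment on each test day; luminescence detected after 3 h. Reported as IC50, partly averaged and rounded to two significant figures.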
row,Structure (SMILES),IC50
1,"Cc1c(CN2CCNC(=O)C2=O)sc2c1c(=O)n(C1CC(C)(C)C1)c(=O)n2CCC(F)(F)F [Example 167, 3-(3,3-Dimethylcyclobutyl)-6-[(2,3-dioxopiperazin-1-yl)methyl]-5-methyl-1-(3,3,3-trifluoropropyl)thieno[2,3-d]pyrimidine-2,4(1H,3H)-dione]",5.3 nM
2,"Cc1c(Cn2nc[nH]c2=O)sc2c1c(=O)n(C1CC1)c(=O)n2CC1CCC(F)(F)C1 (single isomer, unassigned) [Example 210, 3-Cyclopropyl-1-[(3,3-difluorocyclopentyl)methyl]-5-methyl-6-[(5-oxo-4,5-dihydro-1H-1,2,4-triazol-1-yl)methyl]thieno[2,3-d]pyrimidine-2,4(1H,3H)-dione]",200 nM
3,"Cc1c(Cn2cc[nH]c2=O)sc2c1c(=O)n(C1CC1)c(=O)n2CC1CCCO1 (racemic) [Example 46, 3-Cyclopropyl-5-methyl-6-[(2-oxo-2,3-dihydro-H-imidazol-1-yl)methyl]-1-(tetrahydrofuran-2-ylmethyl)thieno[2,3-d]pyrimidine-2,4(1H,3H)-dione]",39 nM
4,"Cc1c(CN2CCNC2=NC#N)sc2c1c(=O)n(C1CC3(CCC3)C1)c(=O)n2CCC(F)(F)F [Example 175, [1-{[5-Methyl-2,4-dioxo-3-(spiro[3.3]hept-2-yl)-1-(3,3,3-trifluoropropyl)-1,2,3,4-tetrahydrothieno[2,3-d]pyrimidin-6-yl]methyl}imidazolidin-2-ylidene]cyanamide]",18 nM
5,"Cc1c(Cn2nc[nH]c2=O)sc2c1c(=O)n(C1CC1C)c(=O)n2CCOC(F)(F)F (racemic) [Example 276, 5-Methyl-3-(2-methylcyclopropyl)-6-[(5-oxo-4,5-dihydro-1H-1,2,4-triazol-1-yl)methyl]-1-[2-(trifluoromethoxy)ethyl]thieno[2,3-d]pyrimidine-2,4(1H,3H)-dione]",2 nM
6,"Cc1c(CN2CCNC2=O)sc2c1c(=O)n(C1CC1C)c(=O)n2C (single isomer, unassigned) [Example 223, 1,5-Dimethyl-3-(2-methylcyclopropyl)-6-[(2-oxoimidazolidin-1-yl)methyl]thieno[2,3-d]pyrimidine-2,4(1H,3H)-dione]",19 nM
7,"Cc1c(CN2CCNC2=O)sc2c1c(=O)n([C@H]1C[C@@H]1C)c(=O)n2CC1CCC(F)(F)C1 (stereo partly drawn) [Example 255, 1-[(3,3-Difluorocyclopenty)methy]-5-methyethyl-3-[(S,2S)-2-methylcyclopropyl]-6-[(2-oxoimidazolidin-1-yl)methyl]thieno[2,3-d]pyrimidine-2,4(1H,3H)-dione]",6.7 nM
8,"Cc1c(CN2CCNC2=O)sc2c1c(=O)n([C@H]1C[C@@H]1C)c(=O)n2CC1CC1(F)F (stereo partly drawn) [Example 249, 1-[(2,2-Difluorocyclopropyl)methyl]-5-methyl-3-[(1S,2S)-2-methylcyclopropyl]-6-[(2-oxoimidazolidin-1-yl)methyl]thieno[2,3-d]pyrimidine-2,4(1H,3H)-dione]",1.9 nM
9,"COC(=O)N=C1NCCN1Cc1sc2c(c1C)c(=O)n(C1CC1)c(=O)n2CC1CCCO1 (racemic) [Example 42, Methyl [1-{[3-cyclopropyl-5-methyl-2,4-dioxo-1-(tetrahydrofuran-2-ylmethyl)-1,2,3,4-tetrahydrothieno[2,3-d]pyrimidin-6-yl]methyl}imidazolidin-2-ylidene]carbamate]",10 nM
10,CCC1CC1n1c(=O)c2c(C)c(Cn3nc[nH]c3=O)sc2n(CCOC)c1=O (racemic) [Example 303],71 nM
11,"COCCn1c(=O)n(C2CC(C)(C)C2)c(=O)c2c(C)c(CN3CCNC3=NC(=O)OC)sc21 [Example 171, Methyl [1-{[3-(3,3-dimethylcyclobutyl)-1-(2-methoxyethyl)-5-methyl-2,4-dioxo-1,2,3,4-tetrahydrothieno[2,3-d]pyrimidin-6-yl]methyl}imidazolidin-2-ylidene]carbamate]",17 nM
12,"COCCn1c(=O)n(C2CC2(C)C)c(=O)c2c(C)c(CN3CCNC3=O)sc21 (racemic) [Example 103, 3-(2,2-Dimethylcyclopropyl)-1-(2-methoxyethyl)-5-methyl-6-[(2-oxoimidazolidin-1-yl)methyl]thieno[2,3-d]pyrimidine-2,4(1H,3H)-dione]",21 nM

# Continued, values first:
row,IC50,Structure (SMILES)
1,3.3 nM,"Cc1c(CN2CCNC2=O)sc2c1c(=O)n(C1(C)CC1)c(=O)n2CCOC(F)(F)F [Example 75, 5-Methyl-3-(1-methylcyclopropyl)-6-[(2-oxoimidazolidin-1-yl)methyl]-1-[2-(trifluormethoxy)ethyl]thieno[2,3-d]pyrimidine-2,4(1H,3H)-dione]"
2,1.1 nM,"Cc1c(CN2CCNC2=O)sc2c1c(=O)n([C@H]1C[C@@H]1C)c(=O)n2CC1CC1(F)F (single isomer, unassigned) [Example 250]"
3,35 nM,"COCCn1c(=O)n(C2CC2(C)C)c(=O)c2c(C)c(CN3CCNC3=O)sc21 (single isomer, unassigned) [Example 104, 3-(2,2-Dimethylcyclopropyl)-1-(2-methoxyethyl)-5-methyl-6-[(2-oxoimidazolidin-1-yl)methyl]thieno[2,3-d]pyrimidine-2,4(1H,3H)-dione]"
4,200 nM,"Cc1c(Cn2nc[nH]c2=O)sc2c1c(=O)n(C1CC1)c(=O)n2CC1CCC(F)(F)C1 (racemic) [Example 209, 3-Cyclopropyl-1-[(3,3-difluorocyclopentyl)methyl]-5-methyl-6-[(5-oxo-4,5-dihydro-1H-1,2,4-triazol-1-yl)methyl]thieno[2,3-d]pyrimidine-2,4(1H,3H)-dione]"
5,36 nM,"Cc1c(CN2CCNC2=O)sc2c1c(=O)n(C1(C)CC1)c(=O)n2CC1CC1(F)F (single isomer, unassigned) [Example 65, 1-[(2,2-Difluorocyclopropyl)methyl]-5-methyl-3-(1-methylcyclopropyl)-6-[(2-oxoimidazolidin-1-yl)methyl]thieno[2,3-d]pyrimidine-2,4(1H,3H)-dione]"
6,44 nM,"Cc1c(CN2CCNC(=O)C2=O)sc2c1c(=O)n(C1CC1)c(=O)n2CCCF [Example 8, 3-Cyclopropyl-6-[(2,3-dioxopiperazin-1-yl)methyl]-1-(3-fluoropropyl)-5-methylthieno[2,3-d]pyrimidine-2,4(1H,3H)-dione]"
7,1.9 nM,"Cc1c(Cn2nc[nH]c2=O)sc2c1c(=O)n(C1CCC1)c(=O)n2CCC(F)(F)F [Example 114, 3-Cyclobutyl-5-methyl-6-[(5-oxo-4,5-dihydro-1H-1,2,4-triazol-1-yl)methyl]-1-(3,3,3-trifluoropropyl)thieno[2,3-d]pyrimidine-2,4(1H,3H)-dione]"
8,6.2 nM,"COC(=O)N=C1NCCN1Cc1sc2c(c1C)c(=O)n([C@H]1C[C@H](OC)C1)c(=O)n2CCC(F)(F)F [Example 146, Methyl [1-{[3-(trans-3-methoxycyclobutyl)-5-methyl-2,4-dioxo-1-(3,3,3-trifluoropropyl)-1,2,3,4-tetrahydrothieno[2,3-d]pyrimidin-6-yl]methyl}imidazolidin-2-ylidene]carbamate]"
9,4.6 nM,"Cc1c(CN2CCNC2=O)sc2c1c(=O)n(C1CC(C)(C)C1)c(=O)n2CCC(F)(F)F [Example 164, 3-(3,3-Dimethylcyclobutyl)-5-methyl-6-[(2-oxoimidazolidin-1-yl)methyl]-1-(3,3,3-trifluoropropyl)thieno[2,3-d]pyrimidine-2,4(1H,3H)-dione]"
